Assay results taken from US20220389515A1, “USE OF BIOMARKERS TO PREDICT CLINICAL SENSITIVITY TO 2-(4-CHLOROPHENYL)-N-((2-(2,6-DIOXOPIPERIDIN-3-YL)-1-OXOISOINDOLIN-5-YL)METHYL)-2,2-DIFLUOROACETAMIDE” (priority 2019, published 2022).

Key:
[1] = target: Ikaros (Homo sapiens, UniProt Q13422+Q96SW2); settings: U937-Cas9; 18 hours
Experimental: Cells were treated with DMSO or Compound D in the presence of cycloheximide. FIGS. 8D and 8E show the immunoblot analysis of U937-Cas9 cells stably expressing HA-tagged GSPT1 and the indicated sgRNAs. Cells were treated with DMSO, Compound D (FIG. 8D) or pomalidomide (POM; FIG. 8E) at the indicated concentrations for 18 hours.
To understand whether the effect of mTOR activation on Compound D-induced GSPT1 degradation can be ascribed to an increased rate of GSPT1 protein synthesis and/or a decreased rate of GSPT1 degradation, the change of GSPT1 protein half-life in response to TSC1 or TSC2 loss in the presence or absence of Compound D was determined.

[2] = relative humidity increased from about 0% to about 90% RH; cited from earlier work
[3] = target: T1, GSPT1 (Homo sapiens, UniProt P15170); assay: Immunoblot analysis of Compound D-induced GSPT1 degradation in AML cells; format: cell-based; settings: U937 parental, TSC1-/- and TSC2-/- cells
T1 construct: endogenous in cells; host or cells: KG-1 (TMT proteomics); KG1, U937 / U937-Cas9, MOLM-13, OCI-AML2 (immunoblots)
Experimental: FIG. 2A illustrates the volcano plot of differentially abundant proteins in response to Compound D treatment relative to the DMSO control. KG1 cells were treated with DMSO or 100 nM Compound D for 4 hours and subjected to TMT proteomics analysis. The X-axis denotes the log 2-fold change of Compound D versus the DMSO control for each protein. P-values were corrected for multiple hypothesis testing using the Benjamini-Hoschberg method to arrive at an adjusted-P-value (adj-P, also known as a false discovery rate). The y-axis denotes the −log 10 (adj-P) values indicating statistical significance such that proteins lying above the dotted red line are statistically significant findings with adjusted P-values<0.05. FIG. 2B illustrates the immunoblot analysis of KG1 and U937 cells treated with DMSO or Compound D for 4 hours. Where indicated, cells were pretreated with Bortezomib or MLN4924 for 30 minutes. FIGS. 2C and 2D illustrate the immunoblot analysis (FIG. 2C) and cell proliferation (FIG. 2D) of U937-Cas9 parental cells or cells stably transduced with lentiviral vectors expressing a non-targeting sgRNA (sgNT-1), a sgRNA targeting a non-coding region (sgNC-8), or a sgRNA targeting CRBN(sgCRBN-8). Cells were treated with DMSO or Compound D at indicated concentrations. FIGS. 2E and 2F illustrate the immunoblot analysis (left panel) and cell proliferation (right panel) of MOLM-13 (FIG. 2E) and OCI-AML2 (FIG. 2F) parental and CRBN−/− cells. Cells were treated with DMSO or Compound D at indicated concentrations. Results shown in all figure panels are representative of three biological replicates. Data in FIGS. 2D, 2E (right panel), and 2F (right panel) are shown as mean±SD, n=3 technical replicates.
FIG. 3A illustrates FLAG-HA tagged cereblon wild-type (FLAG-HA-CRBN) or Y384A/W386A mutant (FLAG-HA-YWAA) produced in 293FT CRBN−/− cells was used to capture V5 tagged GSPT1 (GSPT1-V5) and V5 tagged IKZF1 (IKZF1-V5) transiently expressed in 293FT CRBN−/− cells. […] FIG. 3B illustrates the surface representation of GSPT1 in complex with cereblon, DDB1 and Compound D, with DDB1 shown in purple, cereblon in blue, and GSPT1 in orange. The position of Compound D is shown with a white arrow. FIG. 3C illustrates the Fo-Fc omit electron density (green mesh) for Compound D (yellow sticks) contoured at 3.06. FIG. 3D illustrates GSPT1's interaction with cereblon is mediated by a β-hairpin loop. Hydrogen bond interactions between cereblon and the GPST1 β-hairpin are shown as yellow dashes. FIG. 3E illustrates details of the binding interface between cereblon and GSPT1. Compound D is represented as yellow sticks. Predicted polar interactions between Compound D and cereblon are shown as yellow dashes. FIG. 3F illustrates the immunoblot analysis of U937 parental cells or cells stably expressing HA-GSPT1-G575N. Cells were treated with DMSO or Compound D at the indicated concentrations. FIGS. 3G and 311 illustrate the immunoblot analysis (left panel) and cell proliferation (right panel) of MOLM-13 (FIG. 3G) and OCI-AML2 (FIG. 311) parental cells and cells stably expressing HA tagged GSPT1-G575N. Cells were treated with DMSO or Compound D at indicated concentrations.
Like all other cereblon modulators, Compound D contains a glutarimide ring (FIG. 1A) that can bind cereblon and redirect it to target neosubstrates for degradation. Thus, the effect of Compound D on the global proteome in AML cell line KG-1 was assessed using tandem mass tag (TMT) quantitative mass spectrometry.
Specifically, U937 cells stably expressing Cas9 were infected with lentiviral vectors constitutively expressing RFP and non-targeting or non-coding sgRNA (sgNT) controls, or sgRNAs targeting TSC1 or TSC2. Infected cells were selected with 1 μg/ml puromycin. […]

T1 sequence (P15170 1-637 isoform P15170-3): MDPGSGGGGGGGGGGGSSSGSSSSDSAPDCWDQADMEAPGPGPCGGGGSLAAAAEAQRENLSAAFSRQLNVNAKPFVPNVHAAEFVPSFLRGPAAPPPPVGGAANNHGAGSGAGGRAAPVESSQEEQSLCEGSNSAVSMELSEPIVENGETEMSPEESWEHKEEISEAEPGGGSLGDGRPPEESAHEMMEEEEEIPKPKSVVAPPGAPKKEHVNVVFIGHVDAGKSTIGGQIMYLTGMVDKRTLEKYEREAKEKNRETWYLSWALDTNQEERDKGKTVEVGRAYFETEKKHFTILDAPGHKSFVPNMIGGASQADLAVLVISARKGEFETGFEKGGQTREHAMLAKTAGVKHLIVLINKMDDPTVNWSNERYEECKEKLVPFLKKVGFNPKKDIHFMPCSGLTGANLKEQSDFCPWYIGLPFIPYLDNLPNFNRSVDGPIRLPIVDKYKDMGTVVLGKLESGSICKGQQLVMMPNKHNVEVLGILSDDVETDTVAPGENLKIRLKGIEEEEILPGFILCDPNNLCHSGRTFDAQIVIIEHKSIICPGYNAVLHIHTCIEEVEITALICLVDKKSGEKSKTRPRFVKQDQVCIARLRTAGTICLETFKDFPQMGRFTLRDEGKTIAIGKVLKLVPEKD
T1 sequence (Q96SW2 whole entry partner): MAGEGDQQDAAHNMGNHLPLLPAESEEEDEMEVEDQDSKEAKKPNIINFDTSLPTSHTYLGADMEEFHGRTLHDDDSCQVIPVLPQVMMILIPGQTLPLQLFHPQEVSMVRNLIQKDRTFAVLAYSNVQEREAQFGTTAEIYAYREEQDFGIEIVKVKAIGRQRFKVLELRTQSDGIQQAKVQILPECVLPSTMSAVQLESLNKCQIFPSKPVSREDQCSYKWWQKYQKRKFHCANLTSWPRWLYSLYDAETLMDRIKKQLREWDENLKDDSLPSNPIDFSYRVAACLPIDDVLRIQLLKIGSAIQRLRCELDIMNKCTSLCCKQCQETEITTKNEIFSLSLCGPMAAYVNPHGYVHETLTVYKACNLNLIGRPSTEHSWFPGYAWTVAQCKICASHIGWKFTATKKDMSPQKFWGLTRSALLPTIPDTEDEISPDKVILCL
T1 sequence (Q16531 2-1140 partner): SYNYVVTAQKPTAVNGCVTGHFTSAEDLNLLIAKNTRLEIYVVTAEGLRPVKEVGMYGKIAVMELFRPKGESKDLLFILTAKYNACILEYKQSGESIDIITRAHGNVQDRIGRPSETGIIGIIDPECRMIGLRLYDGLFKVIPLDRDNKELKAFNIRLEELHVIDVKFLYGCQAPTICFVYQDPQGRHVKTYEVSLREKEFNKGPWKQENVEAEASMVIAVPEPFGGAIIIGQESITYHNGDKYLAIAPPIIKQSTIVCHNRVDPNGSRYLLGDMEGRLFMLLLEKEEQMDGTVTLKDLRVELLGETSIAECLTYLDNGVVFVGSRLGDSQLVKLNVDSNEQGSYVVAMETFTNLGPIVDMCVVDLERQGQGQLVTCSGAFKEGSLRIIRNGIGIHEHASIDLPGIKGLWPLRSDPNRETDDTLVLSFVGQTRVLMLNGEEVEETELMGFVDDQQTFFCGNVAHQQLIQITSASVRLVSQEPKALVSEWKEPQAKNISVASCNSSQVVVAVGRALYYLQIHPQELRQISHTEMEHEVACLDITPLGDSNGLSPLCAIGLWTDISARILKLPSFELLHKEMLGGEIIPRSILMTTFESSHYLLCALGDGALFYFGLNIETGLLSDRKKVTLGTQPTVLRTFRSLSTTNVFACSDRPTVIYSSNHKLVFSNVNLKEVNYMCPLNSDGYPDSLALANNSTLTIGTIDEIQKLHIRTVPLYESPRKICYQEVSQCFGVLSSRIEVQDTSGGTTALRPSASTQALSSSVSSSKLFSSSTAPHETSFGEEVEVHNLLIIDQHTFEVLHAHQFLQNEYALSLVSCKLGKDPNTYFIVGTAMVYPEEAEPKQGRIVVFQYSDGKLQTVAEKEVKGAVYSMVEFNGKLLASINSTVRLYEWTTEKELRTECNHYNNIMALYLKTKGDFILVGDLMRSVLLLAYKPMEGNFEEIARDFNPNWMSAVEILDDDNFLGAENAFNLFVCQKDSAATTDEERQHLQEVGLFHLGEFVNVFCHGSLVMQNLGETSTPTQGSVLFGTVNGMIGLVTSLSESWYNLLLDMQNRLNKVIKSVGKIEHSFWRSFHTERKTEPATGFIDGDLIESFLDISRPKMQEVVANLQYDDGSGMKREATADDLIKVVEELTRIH
Sequence of Ikaros (Q96SW2 whole entry): as the sequence (Q96SW2 whole entry partner) above
Sequence of Ikaros (Q13422 whole entry): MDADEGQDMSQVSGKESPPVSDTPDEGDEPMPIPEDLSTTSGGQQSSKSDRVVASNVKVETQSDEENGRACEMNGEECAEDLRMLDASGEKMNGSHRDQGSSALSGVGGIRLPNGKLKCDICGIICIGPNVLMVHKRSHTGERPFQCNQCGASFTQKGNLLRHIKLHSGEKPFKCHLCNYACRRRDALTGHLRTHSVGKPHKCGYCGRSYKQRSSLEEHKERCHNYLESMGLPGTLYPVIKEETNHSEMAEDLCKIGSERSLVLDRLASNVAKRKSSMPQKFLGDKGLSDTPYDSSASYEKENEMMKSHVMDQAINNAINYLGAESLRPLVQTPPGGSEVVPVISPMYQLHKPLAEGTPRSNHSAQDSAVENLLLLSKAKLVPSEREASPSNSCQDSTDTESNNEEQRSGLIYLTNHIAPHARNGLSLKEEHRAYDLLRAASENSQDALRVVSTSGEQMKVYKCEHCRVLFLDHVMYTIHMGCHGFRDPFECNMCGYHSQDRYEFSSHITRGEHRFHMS
Sequence of Ikaros (Q16531 whole entry, further chain): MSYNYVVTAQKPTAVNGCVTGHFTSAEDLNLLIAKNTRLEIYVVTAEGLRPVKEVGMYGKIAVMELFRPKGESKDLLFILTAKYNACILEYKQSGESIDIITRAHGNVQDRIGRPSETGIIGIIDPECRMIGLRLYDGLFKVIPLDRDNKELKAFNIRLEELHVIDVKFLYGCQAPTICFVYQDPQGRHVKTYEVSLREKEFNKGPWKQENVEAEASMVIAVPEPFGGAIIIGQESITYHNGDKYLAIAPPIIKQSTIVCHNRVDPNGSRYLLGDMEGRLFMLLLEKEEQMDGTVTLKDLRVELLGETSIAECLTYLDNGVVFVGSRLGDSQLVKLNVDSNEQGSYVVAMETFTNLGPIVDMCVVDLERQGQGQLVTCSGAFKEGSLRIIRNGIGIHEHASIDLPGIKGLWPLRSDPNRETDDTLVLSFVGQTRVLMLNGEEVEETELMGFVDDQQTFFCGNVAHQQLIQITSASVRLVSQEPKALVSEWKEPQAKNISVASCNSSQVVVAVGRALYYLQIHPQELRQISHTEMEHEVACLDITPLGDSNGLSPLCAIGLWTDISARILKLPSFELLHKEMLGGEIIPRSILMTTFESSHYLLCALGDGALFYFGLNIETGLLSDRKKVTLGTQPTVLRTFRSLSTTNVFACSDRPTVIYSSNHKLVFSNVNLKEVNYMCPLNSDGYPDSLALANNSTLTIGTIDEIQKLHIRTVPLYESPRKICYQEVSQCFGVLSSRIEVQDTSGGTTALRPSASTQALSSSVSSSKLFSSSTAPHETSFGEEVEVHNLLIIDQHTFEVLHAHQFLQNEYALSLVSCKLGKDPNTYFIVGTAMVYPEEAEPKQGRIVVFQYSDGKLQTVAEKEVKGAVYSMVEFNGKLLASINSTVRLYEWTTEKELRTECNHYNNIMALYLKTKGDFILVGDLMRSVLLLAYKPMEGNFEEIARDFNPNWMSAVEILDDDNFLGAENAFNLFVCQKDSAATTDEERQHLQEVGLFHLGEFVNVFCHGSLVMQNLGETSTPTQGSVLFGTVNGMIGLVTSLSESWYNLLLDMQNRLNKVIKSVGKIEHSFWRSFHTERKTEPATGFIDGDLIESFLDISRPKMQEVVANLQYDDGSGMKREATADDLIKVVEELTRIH

SMILES	water uptake [2]	further results
Nc1cccc2c1C(=O)N(C1CCC(=O)NC1=O)C2=O (centres unmarked) [pomalidomide]		degradation of Ikaros under TSC1 or TSC2 deficiency [1]: did not affect the degradation of Ikaros by pomalidomide
O=C1CCC(N2Cc3cc(CNC(=O)C(F)(F)c4ccc(Cl)cc4)ccc3C2=O)C(=O)N1 (centres unmarked) [Form B, 2-(4-chlorophenyl)-N-((2-(2,6-dioxopiperidin-3-yl)-1-oxoisoindolin-5-yl)methyl)-2,2-difluoroacetamide]	about 1.4 % w/w	
O=C1CCC(N2Cc3cc(CNC(=O)C(F)(F)c4ccc(Cl)cc4)ccc3C2=O)C(=O)N1 (centres unmarked) [Form C, 2-(4-chlorophenyl)-N-((2-(2,6-dioxopiperidin-3-yl)-1-oxoisoindolin-5-yl)methyl)-2,2-difluoroacetamide]	about 0.6 % w/w	
C[C@@H]1C[C@@H]([C@H](O)CC2CC(=O)NC(=O)C2)C(=O)[C@@H](C)C1 [cycloheximide, reference compound]		protein level of GSPT1, cycloheximide treatment alone [3]: did not show much effect on the protein level of GSPT1
O=C1CCC(N2Cc3cc(CNC(=O)C(F)(F)c4ccc(Cl)cc4)ccc3C2=O)C(=O)N1 (centres unmarked) [Form A, 2-(4-chlorophenyl)-N-((2-(2,6-dioxopiperidin-3-yl)-1-oxoisoindolin-5-yl)methyl)-2,2-difluoroacetamide]	about 1.2 % w/w	
